# Legend:
# [1] = Metabolic stability, dog liver microsomes; type: in vitro ADME; details: 30 min, 1 μM
# Procedure: (§1) Pooled human liver microsomes (150 donor) and dog, rat, mouse liver microsomes were obtained from BD Gentest Co. (Woburn, MA, USA). NADPH regeneration system was obtained from Promega. S-Mephenytoin, 4-hydroxymephenytoin, and 1’-hydroxymidazolam were purchased from Ultrafine Chemical Co. (Manchester, UK). All other chemicals and solvents were of the highest grade available. The metabolic stability assay was performed by incubation of human or selected animal liver microsomes (most often dog, rat and mouse), at 37 °C with a test compound at a final concentration of 1 μM, in the presence of 0.5 mg/mL microsomal protein and NADPH regeneration system, in a total volume of 100 μL of 100 mM phosphate buffer, pH 7.4. The incubation was started by the addition of NADPH regeneration system and terminated with 40 μL of ice-cold acetonitrile at 0 and 30 min. Precipitated proteins were removed by centrifugation at 10,000× g for 5 min at 4 °C. Aliquots of the supernatant were injected onto an LC-MS/MS system. Incubations terminated prior to the addition of NADPH regeneration system (time point 0 min) were used as standards, defined as 100%. Percent of the parent compound remaining was calculated by comparing peak area.
# [2] = Metabolic stability, mouse liver microsomes; type: in vitro ADME; details: 30 min, 1 μM
# Procedure: as §1
# [3] = Metabolic stability, rat liver microsomes; type: in vitro ADME; details: 30 min, 1 μM
# Procedure: as §1
# [4] = system: TNF-α-induced adhesion of U937 monocytic cells to HT-29 cells; assay: TNF-α-induced colonic epithelial cell adhesion assay; type: cell-based, human; details: for inhibition at 10 µM: Homo sapiens, Epithelial cell, U937 adhesion to HT-29 cells, TNF-α-induced; for inhibition of TNF-α-induced monocyte-epithelial adhesion: 10 μM
# Procedure: (§2) Synthesized mollugin derivatives were subjected to the colonic epithelial cell adhesion assay, which mimics the initial stage of colon inflammation. The inhibition of TNF-α-induced or IL-6-induced adhesion of U937 monocytic cells to HT-29 cells in 10 μM solution of synthesized molecules was measured, and the results are summarized in Table 1 and Table 2. Mesalazine (2), a commercially available medication for the treatment of IBD, and mollugin were chosen as assay positive controls.
# (§3) HT-29 human colonic epithelial cells and U937 human pre-monocytic cells were grown in RPMI 1640 medium supplemented with 10% FBS, 100 IU/mL penicillin, and 100 µg/mL streptomycin in a humidified incubator under 5% CO2/95% air.
# (§4) U937 monocytic cell adhesion to colonic epithelial cells was evaluated using human U937 pre-monocytic cells, which were prelabeled with 2′,7′-bis(2-carboxyethyl)-5(6)-carboxyfluorescein acetoxymethyl ester (BCECF/AM, 10 μg/mL) for 1 h at 37 °C. HT-29 cells cultured in 24-well plates were pretreated with test compound, 5-ASA, or tofacitinib for 1 h prior to incubation with TNF-α (10 ng/mL) and IL-6 (5 ng/mL) for an additional 3 h. Cells were then co-incubated with BCECF/AM-prelabeled U937 cells (1 × 10^6 cells/well) for 30 min at 37 °C. Non-adhering U937 cells were removed, and the HT-29 cells and adherent U937 cells were washed twice with PBS. Images were captured and processed with a Nikon ECLIPSE TE2000-U microscope and NIS-Elements F software (Nikon, Tokyo, Japan). For quantitative analysis, other sets of cells were lysed in 0.1% Triton X-100 in Tris (0.1 M), and the fluorescence was measured using a fluorescence-detecting microplate reader (Promega , Madison, WI, USA) at […]. Experiments were performed in triplicate and repeated at least three times independently.
# [5] = Metabolic stability, human liver microsomes; type: in vitro ADME; details: 1 μM
# Procedure: as §1
# [6] = system: IL-6-induced adhesion of U937 monocytic cells to HT-29 cells; assay: IL-6-induced colonic epithelial cell adhesion assay; type: cell-based, human; details: for inhibition at 10 µM: Homo sapiens, Epithelial cell, U937 adhesion to HT-29 cells, IL-6-induced; for inhibition of IL-6-induced monocyte-epithelial adhesion: 10 μM
# Procedure: as §2, §3, §4
# [7] = Plasma stability, rat plasma; type: in vitro ADME; details: 2 h, 37 °C, 1 μM
# Procedure: (§5) The plasma stability assay was performed by incubation of human or rat plasma with a test compound in a final concentration of 1 μM for 120 min at 37 °C. The incubation was terminated by addition of 40 μL of ice-cold acetonitrile and vortexing for 5 min. The precipitated proteins were removed by centrifugation at 14,000× g for 5 min at 4 °C. Aliquots of the supernatant were injected onto a Shimadzu Nexera XR LC system. Percentages of the parent compound remaining were calculated by comparing peak areas using the Xcalibur software (version 1.6.1, Waltham, MA, USA).
# [8] = Plasma stability, human plasma; type: in vitro ADME; details: 37 °C, 1 μM
# Procedure: as §5
SMILES,"Metabolic Stability (% Remain, 30 min) Dog [1] [% Remain]","Metabolic Stability (% Remain, 30 min) Mouse [2] [% Remain]","Metabolic Stability (% Remain, 30 min) Rat [3] [% Remain]","Metabolic Stability (% Remain, 30 min) Human [5] [% Remain]","Plasma Stability (% Remain, 2 h) Rat [7] [% Remain]","Plasma Stability (% Remain, 2 h) Human [8] [% Remain]",inhibition at 10 µM [4] [%],inhibition at 10 µM [6] [%],inhibition of TNF-α-induced monocyte-epithelial adhesion [4],inhibition of IL-6-induced monocyte-epithelial adhesion [6]
"CN(C)CCOC(=O)c1c2c(c3ccccc3c1O)OC(C)(C)C=C2 [6a, 2-(Dimethylamino)ethyl 6-hydroxy-2,2-dimethyl-2H-benzo[h]chromene-5-carboxylate]",2,3,2,6,,,38 ± 4.9,35.5 ± 4.3,,
"CN(C)CCCOC(=O)c1c2c(c3ccccc3c1O)OC(C)(C)C=C2 [6b, 3-(Dimethylamino)propyl 6-hydroxy-2,2-dimethyl-2H-benzo[h]chromene-5-carboxylate]",9,8,7,12,,,39.6 ± 2.9,34.8 ± 4.1,,
"CC1(C)C=Cc2c(C(=O)OCCN3CCCC3)c(O)c3ccccc3c2O1 [6c, 2-(Pyrrolidin-1-yl)ethyl 6-hydroxy-2,2-dimethyl-2H-benzo[h]chromene-5-carboxylate]",,,,,,,39.7 ± 5.7,12.4 ± 2.1,good % inhibition,reduced % inhibition
"CC1(C)C=Cc2c(C(=O)OCCc3ccccn3)c(O)c3ccccc3c2O1 [6j, 2-(Pyridin-2-yl)ethyl 6-hydroxy-2,2-dimethyl-2H-benzo[h]chromene-5-carboxylate]",,,,,,,43.1 ± 6.2,33.6 ± 5.9,,
"CC1(C)C=Cc2c(C(N)=O)c(O)c3ccccc3c2O1 [6k, 6-Hydroxy-2,2-dimethyl-2H-benzo[h]chromene-5-carboxamide]",6,2,2,10,,,42.6 ± 4.2,39.1 ± 4.7,,
"CNC(=O)c1c2c(c3ccccc3c1O)OC(C)(C)C=C2 [6l, 6-Hydroxy-N,2,2-trimethyl-2H-benzo[h]chromene-5-carboxamide]",1,2,1,13,,,45.4 ± 4.7,12.2 ± 4.4,,
"CCNC(=O)c1c2c(c3ccccc3c1O)OC(C)(C)C=C2 [6m, N-Ethyl-6-hydroxy-2,2-dimethyl-2H-benzo[h]chromene-5-carboxamide]",,,,,,,38.4 ± 5.7,25.8 ± 3.4,,
"CN1CCN(C(=O)c2c3c(c4ccccc4c2O)OC(C)(C)C=C3)CC1 [6n, (6-Hydroxy-2,2-dimethyl-2H-benzo[h]chromen-5-yl)(4-methylpiperazin-1-yl)methanone]",,,,,,,37.4 ± 3.3,34.2 ± 7.9,,
CCN1CCN(C(=O)c2c3c(c4ccccc4c2O)OC(C)(C)C=C3)CC1 [6o],,,,,,,46.2 ± 5.4,9.4 ± 2.1,good % inhibition,reduced % inhibition
"COC(=O)c1c2c(c3cc(F)ccc3c1O)OC(C)(C)C=C2 [14d, Methyl 9-fluoro-6-hydroxy-2,2-dimethyl-2H-benzo[h]chromene-5-carboxylate]",,,,,,,24.9 ± 8.1,28 ± 5.6,,

# The next lines start with results.
"Metabolic Stability (% Remain, 30 min) Dog [1] [% Remain]","Metabolic Stability (% Remain, 30 min) Mouse [2] [% Remain]","Metabolic Stability (% Remain, 30 min) Rat [3] [% Remain]","Metabolic Stability (% Remain, 30 min) Human [5] [% Remain]","Plasma Stability (% Remain, 2 h) Rat [7] [% Remain]","Plasma Stability (% Remain, 2 h) Human [8] [% Remain]",SMILES,inhibition at 10 µM [4] [%],inhibition at 10 µM [6] [%],inhibition of TNF-α-induced monocyte-epithelial adhesion [4],inhibition of IL-6-induced monocyte-epithelial adhesion [6]
52,82,78,52,2,39.5,"COC(=O)c1c2c(c3ccc(F)cc3c1O)OC(C)(C)C=C2 [14a, Methyl 8-fluoro-6-hydroxy-2,2-dimethyl-2H-benzo[h]chromene-5-carboxylate]",36.1 ± 7.6,59.4 ± 7.4,,
4,19,51,88,1,100,"COC(=O)c1c2c(c3ccc(C)cc3c1O)OC(C)(C)C=C2 [14b, Methyl 6-hydroxy-2,2,8-trimethyl-2H-benzo[h]chromene-5-carboxylate]",29.8 ± 7.2,23.4 ± 2.5,,
22,70,90,100,10,97,"COC(=O)c1c2c(c3ccc(C(F)(F)F)cc3c1O)OC(C)(C)C=C2 [14c, Methyl 6-hydroxy-2,2-dimethyl-8-(trifluoromethyl)-2H-benzo[h]chromene-5-carboxylate]",63.2 ± 10.8,39.3 ± 5.6,,
10,10,9,78,91,100,"CC1(C)C=Cc2c(C(=O)OCCN3CCOCC3)c(O)c3cc(F)ccc3c2O1 [15a, 2-Morpholinoethyl 8-fluoro-6-hydroxy-2,2-dimethyl-2H-benzo[h]chromene-5-carboxylate]",36.6 ± 9.4,61.1 ± 10.9,,
57,18,9,41,55,100,"Cc1ccc2c3c(c(C(=O)OCCN4CCOCC4)c(O)c2c1)C=CC(C)(C)O3 [15b, 2-Morpholinoethyl 6-hydroxy-2,2,8-trimethyl-2H-benzo[h]chromene-5-carboxylate]",24.9 ± 3.5,54.3 ± 6.5,,
30,11,8,48,81,94,"CC1(C)C=Cc2c(C(=O)OCCN3CCOCC3)c(O)c3ccc(F)cc3c2O1 [15d, 2-Morpholinoethyl 9-fluoro-6-hydroxy-2,2-dimethyl-2H-benzo[h]chromene-5-carboxylate]",47 ± 8.9,75.6 ± 11.5,,

# Source: paper PMC6222789, “CF3-Substituted Mollugin 2-(4-Morpholinyl)-ethyl ester as a Potential Anti-inflammatory Agent with Improved Aqueous Solubility and Metabolic Stability” (Molecules : A Journal of Synthetic Chemistry and Natural …, 2018)
